pIC50: −log10 of the molar value. Counter-ions that a name gives are not always drawn. Like-named read-outs stand apart in the source and are kept apart here.
Molecular target: recombinant human GST-Syk (Homo sapiens (Human), UniProt P43405)
Assay: Homogeneous Time-Resolved Fluorescence (HTRF) Assay for the Recombinant Human Syk Enzyme
Format: biochemical
Details: recombinant human GST-Syk 5 pM, ATP 25 μM
Protocol: Homogeneous Time-Resolved Fluorescence (HTRF) Assay for the Recombinant Human Syk Enzyme:
A recombinant GST-hSyk fusion protein was used to measure potency of compounds to inhibit human Syk activity. The recombinant human GST-Syk (Carna Biosciences #08-176) (5 pM final concentration) was incubated with various concentrations of the inhibitor diluted in DMSO (0.1% final concentration) for 10 minutes at room temperature in 15 mM Tris-HCl (pH 7.5), 0.01% tween 20, 2 mM DTT in 384 well plate format. To initiate the reaction the biotinylated substrate peptide (250 nM final concentration) that contains the phosphorylation site for Syk was added with magnesium (5 mM final concentration) and ATP (25 μM final concentration). Final volume of the reaction was 10 μL. Phosphorylation of the peptide was allowed to proceed for 45′ at room temperature. To quench the reaction and detect the phosphorylated product, 2 nM of a Europium-anti-phosphotyrosine antibody (Perkin Elmer #AD0161) and 70 nM SA-APC (Perkin-Elmer #CR130-100) were added together in 15 mM Tris pH 7.5, 40 mM EDTA, 0.01% Tween 20. Final volume of the quenching solution was 10 μL. The resulting HTRF signal was measured after 30 minutes on a EnVision (Perkin-Elmer) reader using a time-resolved fluorescence protocol. […] IC50 values are also provided for the following representative compounds: […]

[1] = read-out: rhSyk Activity (IC50)
[2] = 10-dose titration, read-out: rhSyk

SMILES | pIC50 [1] | pIC50 [2]
Cc1cc(Nc2nccc(C(F)(F)F)n2)cc(-c2cnc(C(C)(O)[C@H]3CC[C@H](c4nn[nH]n4)CC3)s2)c1 (single isomer, unassigned) [Example 6 (faster eluting enantiomer), 2-{[3-(2-{1-hydroxy-1-[trans-4-(2H-tetrazol-5-yl)cyclohexyl]ethyl}-1,3-thiazol-5-yl)-5-methylphenyl]amino}-4-(trifluoromethyl)pyrimidin-1-ium trifluoroacetate] | ≥ 7.00 | –
Cc1ccnc(Nc2cc(C)c(Br)c(-c3cnc([C@](C)(O)[C@H]4CC[C@H](C(=O)O)CC4)s3)c2)n1 (single isomer, unassigned) [Example 8, trans-4-[(1R or 1S)-1-(5-{2-bromo-3-methyl-5-[(4-methylpyrimidin-2-yl)amino]phenyl}-1,3-thiazol-2-yl)-1-hydroxyethyl]cyclohexanecarboxylic acid] | ≥ 7.00 | –
CC(O)(c1ncc(-c2cc(Nc3nccc(C(F)(F)F)n3)cc(C(F)F)c2)s1)[C@H]1CC[C@H](C(=O)O)CC1 (single isomer, unassigned) [Example 18, trans-4-((1R or 1S)-{5-[3-(difluoromethyl)-5-{[4-(trifluoromethyl)pyrimidin-2-yl]amino}phenyl]-1,3-thiazol-2-yl}-1-hydroxyethyl)cyclohexanecarboxylic acid] | ≥ 7.00 | > 9.30
Cc1cc(Nc2nccc(C)n2)cc(-c2cnc(C[C@H]3CC[C@H](C(=O)O)CC3)s2)c1 (single isomer, unassigned) [Example 13 (trans, slower eluting isomer), trans-4-[(5-{3-methyl-5-[(4-methylpyrimidin-2-yl)amino]-phenyl}-1,3-thiazol-2-yl)methyl]cyclohexanecarboxylic acid] | ≥ 7.00 | –
Cc1cc(Nc2nccc(C(F)(F)F)n2)cc(-c2cnc(C(O)C3CCC(O)CC3(C)C)s2)c1 (stereo not drawn) [Example 12, 4-{hydroxy[5-(3-methyl-5-{[4-(trifluoromethyl)pyrimidin-2-yl]amino}phenyl)-1,3-thiazol-2-yl]methyl}-3,3-dimethylcyclohexanol] | ≥ 7.00 | –
Cc1cc(Nc2nccc(C(F)(F)F)n2)cc(-c2cnc(C(C)(O)[C@H]3CC[C@H](c4nn[nH]n4)CC3)s2)c1 (single isomer, unassigned) [Example 6 (slower eluting enantiomer), 2-{[3-(2-{1-hydroxy-1-[trans-4-(2H-tetrazol-5-yl)cyclohexyl]ethyl}-1,3-thiazol-5-yl)-5-methylphenyl]amino}-4-(trifluoromethyl)pyrimidin-1-ium trifluoroacetate] | ≥ 7.00 | –
C[C@@](O)(c1ncc(-c2cc(F)cc(Nc3nccc(C(F)(F)F)n3)c2)s1)[C@H]1CC[C@H](C(=O)O)CC1 (single isomer, unassigned) [Example 17, trans-4-{(1R or 1S)-1-[5-(3-fluoro-5-{[4-(trifluoromethyl)pyrimidin-2-yl]amino}phenyl)-1,3-thiazol-2-yl]-1-hydroxyethyl}cyclohexanecarboxylic acid] | ≥ 7.00 | 9.00
Cc1cc(Nc2nccc(C)n2)cc(-c2cnc(CC3(O)CCC(C(=O)OC(C)(C)C)CC3)s2)c1 (single isomer, unassigned) [Example 5, Step 3 (cis isomer), tert-butyl cis-4-hydroxy-4-[(5-{3-methyl-5-[(4-methylpyrimidin-2-yl)amino]phenyl}-1,3-thiazol-2-yl)methyl]cyclohexanecarboxylate] | 6.00 to 7.00 | –
Cc1cc(Nc2nccc(C(F)(F)F)n2)cc(-c2cnc(C(O)C3CCC4(CC3)OCCO4)s2)c1 (stereo not drawn) [Example 22, 1,4-dioxaspiro[4.5]dec-8-yl[5-(3-methyl-5-{[4-(trifluoromethyl)pyrimidin-2-yl]amino}phenyl)-1,3-thiazol-2-yl]methanol] | 6.00 to 7.00 | 6.71
Cc1cc(Nc2nccc(C(F)(F)F)n2)cc(-c2cnc(C(C)(O)C3CCC(C(=O)O)C3)s2)c1 (stereo not drawn) [Example 3-1] | ≥ 7.00 | –
Cc1cc(Nc2nccc(C(F)(F)F)n2)cc(-c2cnc(C(F)C3CCC(C(=O)O)CC3)s2)c1 (stereo not drawn) [Example 4-6] | ≥ 7.00 | 8.70
CCCCC(=O)OC1CCC(C(C)(O)c2ncc(-c3cc(C)cc(Nc4nccc(C(F)(F)F)n4)c3)s2)CC1 (stereo not drawn) [Example 2-3] | 5.00 to 6.00 | 5.90
Cc1cc(Nc2nccc(C(F)(F)F)n2)cc(-c2cnc(C(=O)C3CCC4(CC3)OCCO4)s2)c1 [Example 1-20, 1,4-dioxaspiro[4.5]dec-8-yl[5-(3-methyl-5-{[4-(trifluoromethyl)pyrimidin-2-yl]amino}phenyl)-1,3-thiazol-2-yl]methanone] | 6.00 to 7.00 | –
COC(=O)[C@@H]1CC(C(=O)c2ncc(-c3cc(C)cc(Nc4nccc(C(F)(F)F)n4)c3)s2)[C@H](O)C1(C)C (stereo partly drawn) [Example 14, methyl (1,3-cis, 1,4-trans)-3-hydroxy-2,2-dimethyl-4-{[5-(3-methyl-5-{[4-(trifluoromethyl)-pyrimidin-2-yl]amino}phenyl)-1,3-thiazol-2-yl]carbonyl}cyclopentanecarboxylate] | 6.00 to 7.00 | 6.07
Cc1cc(Nc2nccc(C)n2)cc(-c2cnc(C(C)(O)C3CCC(NOC(=O)Cc4ccccc4)CC3)s2)c1 (stereo not drawn) [Example 2-57] | 6.00 to 7.00 | 6.91
Cc1cc(Nc2nccc(C(F)(F)F)n2)cc(-c2cnc(C(C)(O)C3CCC(C(=O)O)C3)s2)c1 (stereo not drawn) [Example 3-3] | ≥ 7.00 | –
Cc1cc(Nc2nccc(C(F)(F)F)n2)cc(-c2cnc(C(O)[C@H]3CC[C@@H](C(N)=O)CC3)s2)c1 [Example 7 (cis isomer), cis-4-{hydroxy[5-(3-methyl-5-{[4-(trifluoromethyl)pyrimidin-2-yl]amino}phenyl)-1,3-thiazol-2-yl]methyl}cyclohexanecarboxamide] | ≥ 7.00 | –
Cc1cc(Nc2nccc(C)n2)cc(-c2cnc(C[C@H]3CC[C@@H](C(=O)O)CC3)s2)c1 (single isomer, unassigned) [Example 13 (cis, faster eluting isomer), cis-4-[(5-{3-methyl-5-[(4-methylpyrimidin-2-yl)amino]phenyl}-1,3-thiazol-2-yl)methyl]cyclohexanecarboxylic acid] | ≥ 7.00 | –
Cc1cc(Nc2ncc(F)c(C)n2)cc(-c2cnc(C(O)(CO)C3CCC(C(=O)O)CC3)s2)c1 (stereo not drawn) [Example 2-109] | ≥ 7.00 | 7.82
Cc1cc(Nc2nccc(C(F)(F)F)n2)cc(-c2cnc(C(C)(O)C3CCC(C)(O)CC3)s2)c1 (stereo not drawn) [Example 23, 4-{1-hydroxy-1-[5-(3-methyl-5-{[4-(trifluoromethyl)pyrimidin-2-yl]amino}phenyl)-1,3-thiazol-2-yl]ethyl}-1-methylcyclohexanol] | ≥ 7.00 | –
Cc1cc(Nc2nccc(C(F)F)n2)cc(-c2cnc(C(C)(O)[C@H]3CC[C@H](C(=O)O)CC3)s2)c1 (single isomer, unassigned) [Example 2-77, trans-4-{(1R or S)-[5-(3-{[4-(difluoromethyl)pyrimidin-2-yl]amino}-5-methylphenyl)-1,3-thiazol-2-yl]-1-hydroxyethyl}cyclohexanecarboxylic acid] | ≥ 7.00 | > 9.30
CCCCC(=O)OC1CCC(C(C)(O)c2ncc(-c3cc(C)cc(Nc4ncc(F)c(OC)n4)c3)s2)CC1 (stereo not drawn) [Example 2-73] | 5.00 to 6.00 | 5.84
CCC(=O)O[C@@H]1CCC(C(C)(O)c2ncc(-c3cc(C)cc(Nc4nccc(C)n4)c3)s2)C[C@H]1C (stereo partly drawn) [Example 2-16] | ≥ 7.00 | 7.03
Cc1cc(Nc2nccc(C(F)(F)F)n2)cc(-c2cnc(C(N)[C@H]3CC[C@H](C(=O)O)CC3)s2)c1 (stereo partly drawn) [Example 2-112] | ≥ 7.00 | 8.52
C[C@](O)(c1ncc(-c2cc(CO)cc(Nc3nccc(C(F)(F)F)n3)c2)s1)[C@H]1CC[C@H](C(=O)O)CC1 (single isomer, unassigned) [Example 15, trans-4-[(1R or 1S)-1-hydroxy-1-{5-[3-(hydroxymethyl)-5-{[4-(trifluoromethyl)pyrimidin-2-yl]amino}phenyl]-1,3-thiazol-2-yl}ethyl]cyclohexanecarboxylic acid] | ≥ 7.00 | > 9.30
Cc1cc(Nc2nccc(C(F)(F)F)n2)cc(-c2cnc(C(O)[C@H]3CC[C@H](C(N)=O)CC3)s2)c1 [Example 7 (trans isomer), trans-4-{hydroxy[5-(3-methyl-5-{[4-(trifluoromethyl)pyrimidin-2-yl]amino}phenyl)-1,3-thiazol-2-yl]methyl}cyclohexanecarboxamide] | ≥ 7.00 | 7.46
Cc1cc(Nc2nccc(C(F)(F)F)n2)cc(-c2cnc(C(C)(O)C3CCC(C)(C(=O)O)CC3)s2)c1 (stereo not drawn) [Example 3-5] | ≥ 7.00 | –
Cc1cc(Nc2nccc(C(F)(F)F)n2)cc(-c2cnc(C(C)(O)C3CCC(C)(C(=O)O)CC3)s2)c1 (stereo not drawn) [Example 3-6] | ≥ 7.00 | –
CCOC(=O)C1CCC(Cc2ncc(-c3cc(C)cc(Nc4nccc(C)n4)c3)s2)CC1 (stereo not drawn) [Example 13, step 2, ethyl 4-[(5-{3-methyl-5-[(4-methylpyrimidin-2-yl)amino]phenyl}-1,3-thiazol-2-yl)methyl]cyclohexanecarboxylate] | 6.00 to 7.00 | 6.52
CCCCOC(=O)[C@H]1CC[C@H](C(C)(O)c2ncc(-c3cc(C)cc(Nc4nccc(C(F)F)n4)c3)s2)CC1 (single isomer, unassigned) | 6.00 to 7.00 | –
